This experiment concerns MDA-MB-468. Nature of the experiment: Antiproliferative activity against MDA-MB-468 cells by MTT assay. The experiment is classed as functional, cell-based. Particulars: Homo sapiens.
`c1ccc(Sc2nc(N3CC3)nc(N3CC3)n2)nc1` had an IC50 above 100 µM.
Under `c1ccc(Sc2nc(N3CCOCC3)nc(N3CCOCC3)n2)nc1` stands above 100 µM; under `c1ccc(Sc2nc(N3CCSCC3)nc(N3CCSCC3)n2)nc1`, above 100 µM.

The record behind these values is ChEMBL document CHEMBL1144625, “A new platinum complex of triazine demonstrates G1 arrest with novel biological profile in human breast cancer cell line, MDA-MB-468” (Bioorg Med Chem Lett, 2007).
